Legend:
[1] = SSSE after brief electrical stimulation of the perforant path (EEG monitoring for 24 hrs); type: in vivo, male Wistar rats; details: for cumulative seizure duration over the 24h period / time to the last seizure: Experiment 1a: 60 minutes stimulation, i.v. 10 min after end of perforant path stimulation, SPM 927 50 mg/kg, PHT 50 mg/kg, DZP 10 mg/kg, compared to control animals (Fig. 1); for time after injection within which seizures stopped: 50 mg/kg i.v. (fosphenytoin: phenytoin equivalent) 10 min after end of stimulation (Fig. 2A); for Spike frequency (number of spikes/10 min): 50 mg/kg i.v., vs control animals (Fig. 2B)
Experimental: (§1) Animals: The experiments were performed on male Wistar rats, 280-300g (Simonsen Labs, CA). Animals were kept at a constant room temperature with 12 hours artificial dark-light cycle with free access to standard diet and tap water.
Surgery: Under ketamine (60 mg/kg)/xylazine (15 mg/kg) anesthesia, animals were implanted with a bipolar stimulating electrode into the angular bundle of the perforant path (4.5 mm to left lambda, 1 mm anterior to lambdoid fissure) and a bipolar recording electrode into the granule cell layer of the ipsilateral dentate gyrus (3.5 mm anterior to lambda, 2.2 mm left to saggital fissure). Depth of both electrodes was optimized by monitoring the amplitude and waveform of the population spike evoked from the dentate gyrus by stimuli delivered through the perforant path (single square wave monophasic stimuli, 20 V, 0.1 ms delivered every 10 s).
Induction of self-sustaining status epilepticus (SSSE): Seven days after surgery, animals were connected to a Cardionics 16 channel preamplifier, which was connected to the IBM computer. After 5 minutes of baseline EEG recording, animals were stimulated in the awake state for 60 minutes (Experiment 1 a) or 30 minutes (Experiments 1b and 1 c) with 10 s 20 Hz trains (1 ms square wave, 20 V) delivered every minute, together with 2 Hz continuous stimulation with the same parameters.
EEG monitoring and analysis: EEG from the dentate gyrus was monitored and recorded by means of commercial software (Monitor 8.1 from Stellate Systems). The software was configured for automatic detection and saving of spikes and seizures. Monitoring was performed for 24 hrs. EEG was analyzed off line by means of the same software. Spike distribution was presented as number of spikes per 10 min epoch, and the cumulated duration of seizures for 24 hrs of monitoring were calculated. Statistical analysis was performed by means of T-test. A p value less than 0.05 was considered statistically significant.
Drug administration: SPM 927 (50 mg/kg, 5 animals), phenytoin (PHT) (50 mg/kg), Fosphenytoin (F-PTH Porte-Davis, 50 mg/kg of phenytoin equivalent, 5 animals), diazepam (DZP) (10mg/kg) or vehicle (VEH, 10% DMSO, 6 animals) were given i.v. 10 min after the end of perforant path stimulation in a volume of 1 ml/kg.

[2] = Chemically induced SSSE (cobalt/homocysteine model, homocysteine thiolactone injection); type: in vivo, Male Sprague-Dawley rats
Experimental: Male Sprague-Dawley rats were prepared surgically with cobalt powder on the left frontal cortical surface.
Recording and stimulation protocol: four epidural recording electrodes arranged in a square grid (5mm) over the cobalt lesion. EEG was monitored daily beginning 4-5 days following surgery. Status epilepticus was induced by i.p. injection of 5.5mmol/kg homocysteine thiolactone whenever focal motor behaviour and EEG seizures were observed.
Drug administration: SPM 927 was administered (10-100mg/kg) immediately following the second generalized tonic-clonic seizure (GTCS) occurring after homocysteine thiolactone injection.

[3] = Hippocampal damage following SSSE (count of damaged neurons in brain sections, light microscopy); type: in vivo, male Wistar rats
Experimental: as §1
Surgery: Under ketamine (60 mg/kg)/xylazine (15 mg/kg) anesthesia, animals were implanted with a bipolar stimulating electrode into the angular bundle of the perforant path (4.5 mm to left lambda, 1 mm anterior to lambdoid fissure) and a bipolar recording electrode into the granule cell layer of the ipsilateral dentate gyrus (3.5 mm anterior to lambda, 2.2 mm left to saggital fissure). […]
Selection of sections for counting: Selection of sections for counting was controlled by the stereotaxic atlas for rats (Paxinos and Watson). The 3 sections selected for quantitation contained dorsal hippocampus and were 1.6 ±0.05mm posterior to bregma.
Location of counting fields ― damage to the pyramidal cell layer was assessed by counting damaged neurons in the subiculum, CA1, CA3, CA3c and the hilus in the dorsal hippocampus. The neurons were assessed individually from the beginning of the subiculum to the end of the CA3c region using an Olympus Provis Ax 70 microscope at a magnification of 40x. […]
Criteria for differentiation of damaged versus non-damaged neurons - neurons were counted only if the majority of the nucleus was present in the section. […]

[4] = Experiment 1b: 30 minutes stimulation
[5] = SPM 927 10-100mg/kg immediately following the second GTCS, 30 min following treatment

SMILES | cumulative seizure duration over the 24h period [1] | time to the last seizure [1] | time after injection within which seizures stopped [1, 4] [min] | Spike frequency (number of spikes/10 min) [1, 4] | efficacy on both parameters (cumulative seizure duration, time to the last seizure) when compared to DZP and PHT ([1]; Experiment 1a, SPM 927 50 mg/kg i.v. vs DZP 10 mg/kg and PHT 50 mg/kg (Fig. 1)) | recurrence of seizures over the next 24 hrs ([1]; Experiment 1b: 30 minutes stimulation, 50 mg/kg i.v. (Fig. 2A)) | time for which only a few single spikes were recorded ([1]; Experiment 1b: 30 minutes stimulation, 50 mg/kg i.v. (Fig. 2B)) | latency to the first GTCS [2, 5] | mean number of GTCS [2, 5] | number of rats experiencing GTCS ([2]; SPM 927 10-100mg/kg immediately following the second GTCS, observed 30 min following treatment) | GTCS at the highest dose ([2]; highest dose of SPM 927 (range 10-100mg/kg), 30 min following treatment) | injured neurons in hippocampal fields ([3]; Experiment 1c: 30 minutes stimulation, SPM 927 50 mg/kg i.v., brains collected 72 hours after SSSE, subiculum, CA1, CA3, CA3c, hilus) | protection against neuronal injury, statistical significance ([3]; Experiment 1c, vs untreated rats, by hippocampal field)
CN1C(=O)CN=C(c2ccccc2)c2cc(Cl)ccc21 [DZP, diazepam, reference compound] | potently and significantly reduced | potently and significantly reduced | – | – | – | – | – | – | – | – | – | – | –
O=C1NC(c2ccccc2)(c2ccccc2)C(=O)N1COP(=O)(O)O [Fosphenytoin, reference compound] | – | – | ≤ 15 | significantly lower than in control animals but significantly higher than in SPM 927 treated rats | – | – | – | – | – | – | – | – | –
O=C1NC(=O)C(c2ccccc2)(c2ccccc2)N1 [PHT, phenytoin, reference compound] | potently and significantly reduced | potently and significantly reduced | – | – | – | – | – | – | – | – | – | – | –
COC[C@@H](NC(C)=O)C(=O)NCc1ccccc1 [SPM 927, (R)-2-acetamide-N-benzyl-3-methoxypropionamide] | potently and significantly reduced | potently and significantly reduced | ≤ 15 | significantly decreased | somewhat more efficacious | did not recur | about 12 hrs | prolonged | potently reduced | reduced in a dose-dependent fashion | completely abolished all GTCS | only an occasional injured neuron in any hippocampal field | statistically significant in the subiculum, CA1 and CA3
